Assay results as given in patent US8697661B2, “Use of spinosyns and spinosyn compositions against herpesviridae viral infections” (priority 2009, dated 2014).

Legend:
[1] = in vitro; conditions: mouse
[2] = test system: Leishmania donovati MON-2 amastigotes; experiment: In vitro test against Leishmania amastigotes in J774 macrophages; conditions: Leishmania, J774, read-out: Amastigotes IC50
[3] = test system: macrophage mice cell type J774; conditions: J774 CC50 over amastigote IC50
[4] = test system: Leishmania donovati MON-2 promastigotes; experiment: In vitro test against Leishmania promastigotes; conditions: Leishmania, read-out: Promastigotes IC50

SMILES | CC50 [1] | IC50 [2] | Selectivity Index CC50/IC50ama [3] | IC50 [4]
NC[C@@H]1O[C@H](O[C@H]2[C@@H](O)[C@H](O[C@@H]3[C@@H](O)[C@H](N)C[C@H](N)[C@H]3O[C@H]3O[C@H](CO)[C@@H](O)[C@H](O)[C@H]3N)O[C@@H]2CO)[C@H](N)[C@@H](O)[C@@H]1O [Aminosidine] | 448 ± 8.6 µM | 12.8 ± 4 µM | 34.96 | 5.6 ± 0.6 µM
CCCCCCCCCCCCCCCCOP(=O)([O-])OCC[N+](C)(C)C [Miltefosine] | 32.8 ± 5.1 µM | 0.84 ± 0.04 µM | 39.04 | 0.87 ± 0.04 µM
